The source of these data is patent US9067934B2, “Bicyclic pyridinones” (Pfizer Inc., priority 2011, dated 2015).

Counter-ions that a name gives are not always drawn.

This test concerns production of amyloid beta protein Aβ(1-42) (γ-secretase) in human WT-APP overexpressing CHO cells. Put plainly: Cell-Based γ-Secretase Assay with ELISA Readout. The note with it: human WT-APP overexpressing CHO cells, ~24 hours at 37° C., Aβ(1-42) ELISA; footnotes: a = geometric mean of >15 determinations, b = single determination, c = geometric mean of 7-15 determinations; read-out: Aβ 42B IC50 (Geometric Mean of 2-6 Determinations). In outline: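 Human WT-APP-overexpressing CHO cells were pre-cultured 24 h at 37° C, then exposed to compounds (eleven-point half-log series, 1% final DMSO) for ~24 h. Aβ(1-42) in conditioned media was captured with Aβ(1-42)-specific antibody and detected with Eu-labeled 6e10 by DELFIA TRF. IC50 by nonlinear regression against min/max inhibition controls.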
A general note: ELISA stands for enzyme-linked immunosorbent assay.
One may read the IC50 as the point on the concentration scale where inhibition reaches its midpoint. Consider `Cc1cn(-c2ccc3n(c2=O)CCN(CCOc2noc4ccc(Cl)cc24)C3=O)cn1` [Example 82, 2-{2-[(5-chloro-1,2-benzisoxazol-3-yl)oxy]ethyl}-7-(4-methyl-1H-imidazol-1-yl)-3,4-dihydro-2H-pyrido[1,2-a]pyrazine-1,6-dione], for which the IC50 was 209 nM.

On to `Cc1cn(-c2ccc3n(c2=O)CCN(CCOc2cccc4ccc(F)cc24)C3=O)cn1` [Example 83, 2-{2-[(7-fluoronaphthalen-1-yl)oxy]ethyl}-7-(4-methyl-1H-imidazol-1-yl)-3,4-dihydro-2H-pyrido[1,2-a]pyrazine-1,6-dione], for which the IC50 worked out at 12.3 nM.

Take `Cc1cn(-c2ccc3n(c2=O)CCN(CCOc2cc(C(F)(F)F)nc4cc(Cl)ccc24)C3=O)cn1` [Example 84, 2-(2-{[7-chloro-2-(trrfluoromethyl)quinolin-4-yl]oxy}ethyl)-7-(4-methyl-1H-imidazol-1-yl)-3,4-dihydro-2H-pyrido[1,2-a]pyrazine-1,6-dione]: the IC50 is 71.5 nM.

On to `Cc1cn(-c2ccc3n(c2=O)CCN(CCOc2ccc(F)cc2-n2ccc(C(F)(F)F)n2)C3=O)cn1` [Example 85, 2-(2-{4-fluoro-2-[3-(trifluoromethyl)-1H-pyrazol-1-yl]phenoxy}ethyl)-7-(4-methyl-1H-imidazol-1-yl)-3,4-dihydro-2H-pyrido[1,2-a]pyrazine-1,6-dione], for which the IC50 stood at 106 nM.

With `Cc1cn(-c2ccc3n(c2=O)CCN(CCOc2cnc(C(F)(F)F)c4ccccc24)C3=O)cn1` [Example 86, 7-(4-methyl-1H-imidazol-1-yl)-2-(2-{[1-(trifluoromethyl)isoquinolin-4-yl]oxy}ethyl)-3,4-dihydro-2H-pyrido[1,2-a]pyrazine-1,6-dione, trifluoroacetate salt], the IC50 came to 107 nM.

On to `Cc1cn(-c2ccc3n(c2=O)CCN(CCOc2ccc(F)c4oc5ccccc5c24)C3=O)cn1` [Example 87, 2-{2-[(4-fluorodibenzo[b,d]furan-1-yl)oxy]ethyl}-7-(4-methyl-1H-imidazol-1-yl)-3,4-dihydro-2H-pyrido[1,2-a]pyrazine-1,6-dione], for which the IC50 was 22.8 nM.

Regarding `Cc1cn(-c2ccc3n(c2=O)CCN(CCOc2ccccc2-c2cccc(F)c2)C3=O)cn1` [Example 88, 2-{2-[(3′-fluorobiphenyl-2-yl)oxy]ethyl}-7-(4-methyl-1H-imidazol-1-yl)-3,4-dihydro-2H-pyrido[1,2-a]pyrazine-1,6-dione, formate salt], the IC50 came out at 75.4 nM.

As to `Cc1cn(-c2ccc3n(c2=O)CCN(CCOc2ccccc2-c2ccc(F)cc2)C3=O)cn1` [Example 89, 2-{2-[(4′-fluorobiphenyl-2-yl)oxy]ethyl}-7-(4-methyl-1H-imidazol-1-yl)-3,4-dihydro-2H-pyrido[1,2-a]pyrazine-1,6-dione, formate salt], the half-inhibitory concentration (IC50) was 101 nM.

Turning to `Cc1cn(-c2ccc3n(c2=O)CCN(CCOc2ccccc2-c2ccc(C#N)cc2)C3=O)cn1` [Example 90, 2′-{2-[7-(4-methyl-1H-imidazol-1-yl)-1,6-dioxo-1,3,4,6-tetrahydro-2H-pyrido[1,2-a]pyrazin-2-yl]ethoxy}biphenyl-4-carbonitrile, formate salt], the IC50 worked out at 147 nM.

With `Cc1cn(-c2ccc3n(c2=O)CCN(CCOc2ccccc2-c2ccc4c(c2)OCO4)C3=O)cn1` [Example 91, 2-{2-[2-(1,3-benzodioxol-5-yl)phenoxy]ethyl}-7-(4-methyl-1H-imidazol-1-yl)-3,4-dihydro-2H-pyrido[1,2-a]pyrazine-1,6-dione, formate salt], the IC50 is 120 nM.

Regarding `Cc1cn(-c2ccc3n(c2=O)CCN(CCOc2ccccc2-c2cc4ccccc4o2)C3=O)cn1` [Example 92, 2-{2-[2-(1-benzofuran-2-yl)phenoxy]ethyl}-7-(4-methyl-1H-imidazol-1-yl)-3,4-dihydro-2H-pyrido[1,2-a]pyrazine-1,6-dione, formate salt], the IC50 came to 4.87 nM.

Regarding `Cc1ccc(-c2ccccc2OCCN2CCn3c(ccc(-n4cnc(C)c4)c3=O)C2=O)cc1` [Example 93, 2-{2-[(4′-methylbiphenyl-2-yl)oxy]ethyl}-7-(4-methyl-1H-imidazol-1-yl)-3,4-dihydro-2H-pyrido[1,2-a]pyrazine-1,6-dione, formate salt], the IC50 is 75.8 nM.

With `Cc1cn(-c2ccc3n(c2=O)CCN(CCOc2ccccc2-c2ccc(Cl)cc2)C3=O)cn1` [Example 94, 2-{2-[(4′-chlorobiphenyl-2-yl)oxy]ethyl}-7-(4-methyl-1H-imidazol-1-yl)-3,4-dihydro-2H-pyrido[1,2-a]pyrazine-1,6-dione, formate salt], the IC50 is 108 nM.

For the compound `Cc1cccc(-c2ccccc2OCCN2CCn3c(ccc(-n4cnc(C)c4)c3=O)C2=O)c1` [Example 95, 2-{2-[(3′-methylbiphenyl-2-yl)oxy]ethyl}-7-(4-methyl-1H-imidazol-1-yl)-3,4-dihydro-2H-pyrido[1,2-a]pyrazine-1,6-dione, formate salt], the IC50 amounted to 143 nM.

Turning to `Cc1cn(-c2ccc3n(c2=O)CCN(CCOc2cccc4cc(F)c(F)cc24)C3=O)cn1` [Example 96, 2-{2-[(6,7-difluoronaphthalen-1-yl)oxy]ethyl}-7-(4-methyl-1H-imidazol-1-yl)-3,4-dihydro-2H-pyrido[1,2-a]pyrazine-1,6-dione, trifluoroacetate salt], the 50% inhibitory concentration (IC50) is 48.2 nM.

In the case of `Cc1cn(-c2ccc3n(c2=O)CCN(CCOc2cccc4nc(C(F)(F)F)sc24)C3=O)cn1` [Example 97, 7-(4-methyl-1H-imidazol-1-yl)-2-(2-{[2-(trifluoromethyl)-1,3-benzothiazol-7-yl]oxy}ethyl)-3,4-dihydro-2H-pyrido[1,2-a]pyrazine-1,6-dione, trifluoroacetate salt], the IC50 turned out to be 21.3 nM.

For the compound `Cc1cn(-c2ccc3n(c2=O)CCN(CCOc2ccc(F)c4ccc(F)cc24)C3=O)cn1` [Example 98, 2-{2-[(4,7-difluoronaphthalen-1-yl)oxy]ethyl}-7-(4-methyl-1H-imidazol-1-yl)-3,4-dihydro-2H-pyrido[1,2-a]pyrazine-1,6-dione], the IC50 stood at 19.4 nM.

As for `Cc1cn(-c2ccc3n(c2=O)CCN(CCOc2ncc(Cl)c4ccc(F)cc24)C3=O)cn1` [Example 99, 2-{2-[(4-chloro-7-fluoroisoquinolin-1-yl)oxy]ethyl}-7-(4-methyl-1H-imidazol-1-yl)-3,4-dihydro-2H-pyrido[1,2-a]pyrazine-1,6-dione, trifluoroacetate salt], the IC50 was 25.3 nM.

In the case of `CCC(COc1ccc(Cl)cc1C(F)(F)F)N1CCn2c(ccc(-n3cnc(C)c3)c2=O)C1=O` (stereo not drawn) [Example 100, 2-{1-[4-chloro-2-(trifluoromethyl)phenoxy]butan-2-yl}-7-(4-methyl-1H-imidazol-1-yl)-3,4-dihydro-2H-pyrido[1,2-a]pyrazine-1,6-dione, trifluoroacetate salt], the half-maximal inhibitory concentration (IC50) is 135 nM.

Regarding `Cc1cn(-c2ccc3n(c2=O)CCN(CCOc2cccc4[nH]c(C(F)(F)F)cc24)C3=O)cn1` [Example 101, 7-(4-methyl-1H-imidazol-1-yl)-2-(2-{[2-(trifluoromethyl)-1H-indol-4-yl]oxy}ethyl)-3,4-dihydro-2H-pyrido[1,2-a]pyrazine-1,6-dione], the IC50 worked out at 456 nM.

With `Cc1cn(-c2ccc3n(c2=O)CCN(CCOc2cccc4c2cc(C(F)(F)F)n4C)C3=O)cn1` [Example 102, 7-(4-methyl-1H-imidazol-1-yl)-2-(2-{[1-methyl-2-(trifluoromethyl)-1H-indol-4-yl]oxy}ethyl)-3,4-dihydro-2H-pyrido[1,2-a]pyrazine-1,6-dione], the IC50 was 33.7 nM.

Regarding `CCC(COc1ccc(F)cc1C(F)(F)F)N1CCn2c(ccc(-n3cnc(C)c3)c2=O)C1=O` (stereo not drawn) [Example 103, 2-{1-[4-fluoro-2-(trifluoromethyl)phenoxy]butan-2-yl}-7-(4-methyl-1H-imidazol-1-yl)-3,4-dihydro-2H-pyrido[1,2-a]pyrazine-1,6-dione], the 50% inhibitory concentration (IC50) turned out to be 596 nM.

Consider `Cc1cn(-c2ccc3n(c2=O)CCN(CCOc2ccccc2-c2nc(C(F)(F)F)ns2)C3=O)cn1` [Example 104, 7-(4-methyl-1H-imidazol-1-yl)-2-(2-{2-[3-(trifluoromethyl)-1,2,4-thiadiazol-5-yl]phenoxy}ethyl)-3,4-dihydro-2H-pyrido[1,2-a]pyrazine-1,6-dione], for which the IC50 amounted to 7.2 nM.

With `Cc1cn(-c2ccc3n(c2=O)CCN(CCOc2ccc(F)cc2C(C)(C)C(F)(F)F)C3=O)cn1` [Example 105, 2-{2-[4-fluoro-2-(1,1,1-trifluoro-2-methylpropan-2-yl)phenoxy]ethyl}-7-(4-methyl-1H-imidazol-1-yl)-3,4-dihydro-2H-pyrido[1,2-a]pyrazine-1,6-dione], the IC50 came to 25.2 nM.

In the case of `Cc1cn(-c2ccc3n(c2=O)CCN(CCOc2ccccc2C24CC(C2)C4)C3=O)cn1` [Example 106, 2-{2-[2-(bicyclo[1.1.1]pent-1-yl)phenoxy]ethyl}-7-(4-methyl-1H-imidazol-1-yl)-3,4-dihydro-2H-pyrido[1,2-a]pyrazine-1,6-dione], the IC50 was determined as 27.4 nM.

For the compound `Cc1cn(-c2ccc3n(c2=O)CCN([C@@H](C)COc2ccc(Cl)cc2C(F)(F)F)C3=O)cn1` [Example 107, 2-{(2S)-1-[4-chloro-2-(trifluoromethyl)phenoxy]propan-2-yl}-7-(4-methyl-1H-imidazol-1-yl)-3,4-dihydro-2H-pyrido[1,2-a]pyrazine-1,6-dione], the IC50 was determined as 34.4 nM.

As to `Cc1cn(-c2ccc3n(c2=O)CCN(CCOc2cccc4c2CC(F)(F)C4)C3=O)cn1` [Example 108, 2-{2-[(2,2-difluoro-2,3-dihydro-1H-inden-4-yl)oxy]ethyl}-7-(4-methyl-1H-imidazol-1-yl)-3,4-dihydro-2H-pyrido[1,2-a]pyrazine-1,6-dione], the half-maximal inhibitory concentration (IC50) is 46.8 nM.
